According to patent US20130230571A1, “MACROCYCLIC LACTONE COMPOUNDS AND METHODS FOR THEIR USE” (Elixir Medical Corporation, priority 2010, published 2013):
pIC50: −log10 of the molar value. “Also recorded” adds a separate entry of the source.

Key:
MMP-9 = MMP-9 production by LPS-activated macrophages, ELISA; format: cell-based; conditions: 10 nM
Procedure: (§1) In cell culture studies, macrophages were activated to secrete cytokines such as MMP-9 and MCP-1 by treating the cells to E Coli lippopolysaccharide (LPS). Inhibition of these cytokines upon treatment of the activated macrophages with myolimus and rapamycin with 10 nM concentration was tested using ELISA assay.

human smooth muscle cell = experiment: in vitro human smooth muscle cell culture testing, incorporated thymidine; format: cell-based; conditions: exposure for 8 hours; human smooth muscle cells; read-out: IC50 (incorporated thymidine, anti-proliferative)
Procedure: The amounts of incorporated thymidine for samples of myolimus of varying concentrations (0.0001, 0.001, 0.01, 0.1, and 1 μM) and of rapamycin of varying concentrations (0.0001, 0.001, 0.01, 0.1, and 1 μM) were measured after exposure for 8 hours (as shown in FIG. 1). The IC50 of both myolimus and rapamycin was 0.1 nM indicating potent anti-proliferative properties.

MCP-1 = MCP-1 production by LPS-activated macrophages, ELISA; format: cell-based; conditions: 10 nM
Procedure: as §1

[1] = cited from earlier work

SMILES | production of the cytokine MMP-9 (MMP-9) | production of the cytokine MMP-9 (MMP-9; listed as Myolimus) | pIC50 (human smooth muscle cell) | production of cytokine MCP-1 (MCP-1) | production of cytokine MCP-1 (MCP-1; listed as Myolimus) | solubility in water [1] | production of the cytokine MMP-9 (MMP-9; listed as Rapamycin)
CO[C@H]1C[C@@H]2CC[C@@H](C)[C@@](O)(O2)C(=O)C(=O)N2CCCC[C@H]2C(=O)O[C@H]([C@H](C)C[C@@H]2CC[C@@H](O)[C@H](OC)C2)CC[C@H](C)/C=C(\C)[C@@H](O)[C@@H](OC)C(=O)[C@H](C)C[C@H](C)/C=C/C=C/C=C/1C [myolimus, 32-deoxo-rapamycin] | inhibiting production of MMP-9 | reduced the production | 10.00 | inhibiting the production | reduced the production |  | 
CO[C@H]1C[C@@H]2CC[C@@H](C)[C@@](O)(O2)C(=O)C(=O)N2CCCC[C@H]2C(=O)O[C@H]([C@H](C)C[C@@H]2CC[C@@H](O)[C@H](OC)C2)CC(=O)[C@H](C)/C=C(\C)[C@@H](O)[C@@H](OC)C(=O)[C@H](C)C[C@H](C)/C=C/C=C/C=C/1C [rapamycin, Rapamycin] | increased the production of MMP-9 |  | 10.00 | did not impact the production of MCP-1; also recorded: did not have any impact |  | very slightly soluble in water | increased the production
